Measurements taken from ChEMBL document CHEMBL1629523, “Synthesis and antibacterial activity of C-12 pyrazolinyl spiro ketolides” (2010).
≈ marks a conversion by molar mass, not a printed value.

What was measured:
Format in all cases: functional
[1] = tested on: Staphylococcus aureus; assay: Antibacterial activity against erythromycin-resistant Staphylococcus aureus AD-08 by broth microdilution method
[2] = tested on: Streptococcus pneumoniae; assay: Antibacterial activity against erythromycin-resistant Streptococcus pneumoniae 1210 by broth microdilution method
[3] = tested on: Haemophilus influenzae; assay: Antibacterial activity against erythromycin-resistant Haemophilus influenzae 2412 by broth microdilution method
[4] = tested on: Staphylococcus aureus; assay: Antibacterial activity against erythromycin-susceptible Staphylococcus aureus ATCC 6538p by broth microdilution method
[5] = tested on: Staphylococcus aureus; assay: Antibacterial activity against erythromycin-resistant Staphylococcus aureus 5677 by broth microdilution method
[6] = tested on: Staphylococcus aureus; assay: Antibacterial activity against erythromycin-resistant Staphylococcus aureus 5676 by broth microdilution method
[7] = tested on: Streptococcus pneumoniae; assay: Antibacterial activity against erythromycin-resistant Streptococcus pneumoniae 5158 by broth microdilution method
[8] = tested on: Staphylococcus aureus; assay: Antibacterial activity against erythromycin-susceptible Staphylococcus aureus 26001 by broth microdilution method
[9] = tested on: Streptococcus pneumoniae; assay: Antibacterial activity against erythromycin-susceptible Streptococcus pneumoniae 2860 by broth microdilution method
[10] = tested on: Haemophilus influenzae; assay: Antibacterial activity against erythromycin-susceptible Haemophilus influenzae 5096 by broth microdilution method
[11] = tested on: Staphylococcus aureus; assay: Antibacterial activity against erythromycin-susceptible Staphylococcus aureus ATCC 29213 by broth microdilution method
[12] = tested on: Streptococcus pneumoniae; assay: Antibacterial activity against erythromycin-resistant Streptococcus pneumoniae 673 by broth microdilution method

Compound | MIC [1] [µg/mL] | MIC [2] [µg/mL] | MIC [3] [µg/mL] | MIC [4] [µg/mL] | MIC [5] [µg/mL] | MIC [6] [µg/mL] | MIC [7] [µg/mL] | MIC [8] [µg/mL] | MIC [9] [µg/mL] | MIC [10] [µg/mL] | MIC [11] [µg/mL] | MIC [12] [µg/mL]
CC[C@H]1OC(=O)[C@H](C)C(=O)[C@H](C)[C@@H](O[C@@H]2O[C@H](C)C[C@H](N(C)C)[C@H]2O)[C@@](C)(OC)C[C@@H](C)C(=O)[C@H](C)[C@@H](O)C12C=NNC2 (some centres not stated) | 512 (≈ 837 µM) | > 64 | > 8 | 0.25 (≈ 0.409 µM) | 8 (≈ 13.1 µM) | 4 (≈ 6.54 µM) | > 64 | 0.12 (≈ 0.196 µM) | 0.5 (≈ 0.817 µM) | 0.06 (≈ 0.0981 µM) | 0.25 (≈ 0.409 µM) | > 64
CC[C@H]1OC(=O)[C@H](C)C(=O)[C@H](C)[C@@H](O[C@@H]2O[C@H](C)C[C@H](N(C)C)[C@H]2O)[C@](C)(OC)C[C@@H](C)C(=O)[C@H](C)[C@@H](O)C12C=NNC2C (some centres not stated) | 512 (≈ 818 µM) | > 64 | > 8 | 0.25 (≈ 0.399 µM) | 8 (≈ 12.8 µM) | 8 (≈ 12.8 µM) | > 64 | 0.12 (≈ 0.192 µM) | 0.5 (≈ 0.799 µM) | 0.06 (≈ 0.0959 µM) | 0.5 (≈ 0.799 µM) | > 64
CCOC(=O)C1NN=CC12[C@H](O)[C@@H](C)C(=O)[C@H](C)C[C@@](C)(OC)[C@H](O[C@@H]1O[C@H](C)C[C@H](N(C)C)[C@H]1O)[C@@H](C)C(=O)[C@@H](C)C(=O)O[C@@H]2CC (some centres not stated) | 512 (≈ 749 µM) | > 64 | > 8 | 0.12 (≈ 0.175 µM) | 8 (≈ 11.7 µM) | 8 (≈ 11.7 µM) | 8 (≈ 11.7 µM) | 0.12 (≈ 0.175 µM) | 0.5 (≈ 0.731 µM) | 0.06 (≈ 0.0877 µM) | 0.12 (≈ 0.175 µM) | 8 (≈ 11.7 µM)
CC[C@H]1OC(=O)[C@H](C)C(=O)[C@H](C)[C@@H](O[C@@H]2O[C@H](C)C[C@H](N(C)C)[C@H]2O)[C@](C)(OC)C[C@@H](C)C(=O)[C@H](C)[C@@H](O)C12C=NNC2C(=O)OC (some centres not stated) | 256 (≈ 382 µM) | > 64 | > 8 | 0.12 (≈ 0.179 µM) | 4 (≈ 5.97 µM) | 4 (≈ 5.97 µM) | 8 (≈ 11.9 µM) | 0.03 (≈ 0.0448 µM) | 0.5 (≈ 0.746 µM) | 0.06 (≈ 0.0896 µM) | 0.12 (≈ 0.179 µM) | 8 (≈ 11.9 µM)
CC[C@H]1OC(=O)[C@H](C)[C@@H](O[C@H]2C[C@@](C)(OC)[C@@H](O)[C@H](C)O2)[C@H](C)[C@@H](O[C@@H]2O[C@H](C)C[C@H](N(C)C)[C@H]2O)[C@](C)(OC)C[C@@H](C)C(=O)[C@H](C)[C@@H](O)[C@]1(C)O [CLARITHROMYCIN] | > 1020 | > 16 | 8 (≈ 10.7 µM) | 0.5 (≈ 0.668 µM) | > 1020 | > 1020 | > 16 | ≤ 0.063 | 0.125 (≈ 0.167 µM) | 0.06 (≈ 0.0802 µM) | 0.25 (≈ 0.334 µM) | > 16
CC[C@H]1OC(=O)[C@H](C)[C@@H](O[C@H]2C[C@@](C)(OC)[C@@H](O)[C@H](C)O2)[C@H](C)[C@@H](O[C@@H]2O[C@H](C)C[C@H](N(C)C)[C@H]2O)[C@](C)(O)C[C@@H](C)C(=O)[C@H](C)[C@@H](O)[C@]1(C)O [ERYTHROMYCIN] | > 1020 | > 32 | 4 (≈ 5.45 µM) | 0.5 (≈ 0.681 µM) | > 1020 | > 1020 | > 32 | ≤ 0.063 | 0.25 (≈ 0.341 µM) | 0.06 (≈ 0.0818 µM) | 0.5 (≈ 0.681 µM) | > 32
